Laboratory results from ChEMBL document CHEMBL3272116, “Synthesis and evaluation of brain catecholamine depletion by N-alkyl derivatives of 6-aminodopamine” (1976).

Columns and labels:
Mus musculus [1] = experiment: Depletion of dopamine in mouse brain at 50 ug administered intracranially at 24 hrs interval on three successive days measured 24 hrs post last dose relative to control; assay type: functional
Mus musculus [2] = experiment: Depletion of norepinephrine in mouse brain at 50 ug administered intracranially at 24 hrs interval on three successive days measured 24 hrs post last dose relative to control; assay type: functional

SMILES	Activity (Mus musculus [1])	Activity (Mus musculus [2])
NCCc1cc(O)c(O)cc1N	106%	34%
CN(C)CCc1cc(O)c(O)cc1N	94%	88%
CC(C)NCCc1cc(O)c(O)cc1N	–	81%
Br.CNCCc1cc(O)c(O)cc1N	–	66%
